# Paper PMC11546610, “Molecular Modeling and In Vitro Functional Analysis of the RGS12 PDZ Domain Variant Associated with High-Penetrance Familial Bipolar Disorder” (International Journal of Molecular Sciences, 2024)
# Residues, ends and D or L forms follow the SMILES beside them. *: point of attachment. Biotin = O=C1N[C@H]2[C@H](CS[C@H]2CCCCC(=O)*)N1; Ahx = NCCCCCC(=O)O
# T1: wildtype RGS12 PDZ domain GST-fusion protein (Homo sapiens, UniProt O14924)
# T1 construct: human RGS12 PDZ domain (aa 18–101 of UniProt O14924); purchased GenScript; host or cells: E. coli
# T1 sequence (O14924 18-101): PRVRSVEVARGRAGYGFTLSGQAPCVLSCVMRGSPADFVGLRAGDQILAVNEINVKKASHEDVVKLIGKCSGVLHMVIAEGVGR
# T2: R59Q-variant RGS12 PDZ domain GST-fusion protein (Homo sapiens, UniProt O14924, R59Q)
# T2 construct: human RGS12 PDZ domain (aa 18–101 of UniProt O14924); purchased GenScript; host or cells: E. coli
# T2 sequence (O14924 18-101 R59Q): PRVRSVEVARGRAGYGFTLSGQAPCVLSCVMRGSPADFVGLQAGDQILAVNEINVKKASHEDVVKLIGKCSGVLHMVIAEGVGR
# T3: MEK2 C-terminal peptide, biotin-Ahx-RTLRLKQPSTPTRTAV-carboxylic acid (rat, SMILES …)
# T3 construct: C-terminus of MEK2; also called MEK2 C-tail; TRTAV-COOH of MEK2; source: synthetic peptide (GenScript)
# T3 peptide: {Biotin-Ahx}-RTLRLKQPSTPTRTAV-OH
# T4: CXCR2 C-terminal peptide, biotin-Ahx-VGSSSGHTSTTL-carboxylic acid (SMILES …)
# T4 construct: C-terminus of CXCR2; also called CXCR2 C-tail peptide TSTTL-COOH; CXCR2 TSTTL-COOH biosensor; source: synthetic peptide (GenScript)
# T4 peptide: {Biotin-Ahx}-VGSSSGHTSTTL-OH
# T5: SAPAP3 C-terminal peptide, biotin-Ahx-IYIPEAQTRL-carboxylic acid (human, SMILES …)
# T5 construct: C-terminus of SAPAP3; the last ten residues of the human 20-mer aa 960-979; also called SAPAP3 C-tail peptide AQTRL-COOH; source: synthetic peptide (GenScript)
# T5 peptide: {Biotin-Ahx}-IYIPEAQTRL-OH
# Columns and labels:
# [1] = target: T1, wildtype RGS12 PDZ domain GST-fusion protein; test: SPR single-cycle kinetics (Alto), wildtype PDZ domain; assay type: binding; details: single trace in figure, 111 nM–9 μM analyte, PBS pH 7.3, 1:1 Langmuir with mass transport limitation, read-out: apparent on-rate (ka)
# Experimental: (§1) Wildtype and R59Q-variant versions of the human RGS12 PDZ domain (aa 18–101 of UniProt O14924) were each cloned in frame with an N-terminal glutathione-S-transferase (GST) expression tag, expressed by E. coli fermentation, and purified by GST-affinity column and size-exclusion column chromatographies by GenScript. These recombinant GST-fusion proteins were stored at −80 °C in a storage buffer (150 mM NaCl, 10 mM Tris-HCl pH 7.6, 1 mM EDTA, 5 mM DTT, and 10% glycerol) prior to thawing and supplementation with 0.1% (final) Tween 20 for use in the SPR experiments.
# Biotinylated peptides were separately immobilized onto streptavidin-coated gold nanosensor particles (Nicoya) in lane pairs. […] All on-board dilutions and experimental passages of analytes over immobilized peptides were performed with a running buffer consisting of phosphate-buffered saline (137 mM NaCl, 2.7 mM KCl, 4.3 mM disodium phosphate, 1.4 mM monopotassium phosphate; and pH 7.3, from Teknova) supplemented with 0.1% Tween 20 (Nicoya), […] (w/v) bovine serum albumin (BSA; Nicoya), and 3% glycerol (the latter to reduce bulk-shift readings when transitioning from running buffer to protein analyte injections). […] Observed maximal response units (Rmax) and calculated KD values for each single-stack injection were plotted using GraphPad Prism 10.
# [2] = target: T2, R59Q-variant RGS12 PDZ domain GST-fusion protein; test: SPR single-cycle kinetics (Alto), R59Q-variant PDZ domain; assay type: binding; details: for KD of R59Q variant relative to wildtype (fold less than the wildtype) / maximal binding signal (Rmax), R59Q in comparison to wildtype: R59Q vs wildtype, peptide biosensors, N = 2-4; for kon: R59Q, single trace in figure, 111 nM–9 μM analyte, PBS pH 7.3, 1:1 Langmuir with mass transport limitation, read-out: apparent on-rate (ka)
# Experimental: as §1
# Biotinylated peptides were separately immobilized onto streptavidin-coated gold nanosensor particles (Nicoya) in lane pairs. The reference sensor of the lane held either immobilized mNotch1 or rβ2AR peptide as an established negative control surface, and the test sensor held one of the candidate PDZ domain-interacting peptides. All on-board dilutions and experimental passages of analytes over immobilized peptides were performed with a running buffer consisting of phosphate-buffered saline (137 mM NaCl, 2.7 mM KCl, 4.3 mM disodium phosphate, 1.4 mM monopotassium phosphate; and pH 7.3, from Teknova) supplemented with 0.1% Tween 20 (Nicoya), […] (w/v) bovine serum albumin (BSA; Nicoya), and 3% glycerol (the latter to reduce bulk-shift readings when transitioning from running buffer to protein analyte injections). […] Each sensor was regenerated between each single-stack passage by the injection of a surface regeneration buffer (10 mM NaOH). Non-specific binding to the paired, negative control peptide-bound streptavidin surface was subtracted from each single-stack curve and then binding parameters of the on-rate (ka), off-rate (kd), and dissociation constant (KD) were calculated using the 1:1 Langmuir kinetics model with mass transport limitation (Alto software version 2.3.1; Nicoya). Observed maximal response units (Rmax) and calculated KD values for each single-stack injection were plotted using GraphPad Prism 10.
# [3] = system: RGS12 PDZ domain protein fusions; details: yeast two-hybrid, far-western blotting, SPR; ref [19]; cited from earlier work
# Excerpt: In our initial report identifying the PDZ domain within RGS12, we characterized its binding selectivity as being directed toward C-terminal (A/S)-T-X-(L/V) peptide motifs. […] Our subsequent report, characterizing RGS12 as a neuronal Ras/MAPK ...
# [4] = target: T3, MEK2 C-terminal peptide, …; test: SPR; Alto 8 × 2 digital microfluidics SPR (Nicoya); biotinylated peptides immobilised on streptavidin-coated gold nanosensors; GST-RGS12 PDZ fusion protein as analyte, single-cycle kinetics, 111 nM-9 μM; PBS pH 7.3 with 0.1% Tween 20, BSA, 3% glycerol; mNotch1 or rβ2AR reference sensor subtracted; 1:1 Langmuir model with mass transport limitation; apparent rates, estimated KD; details: both partners purified
# [5] = target: T4, CXCR2 C-terminal peptide, …; test: as above; details: both partners purified
# [6] = target: T5, SAPAP3 C-terminal peptide, …; test: as above; details: both partners purified
molecule,measurement,setting,value
CC(C)C[C@H](NC(=O)[C@@H](NC(=O)[C@@H](NC(=O)[C@H](CO)NC(=O)[C@@H](NC(=O)[C@H](Cc1c[nH]cn1)NC(=O)CNC(=O)[C@H](CO)NC(=O)[C@H](CO)NC(=O)[C@H](CO)NC(=O)CNC(=O)[C@@H](NC(=O)CCCCCNC(=O)CCCC[C@@H]1SC[C@@H]2NC(=O)N[C@@H]21)C(C)C)[C@@H](C)O)[C@@H](C)O)[C@@H](C)O)C(=O)O ({Biotin-Ahx}-VGSSSGHTSTTL-OH),kon,[1],1210 M⁻¹ s⁻¹
same,KD of R59Q variant relative to wildtype (fold less than the wildtype),[2],at least 2 fold
same,"maximal binding signal (Rmax), R59Q in comparison to wildtype",[2],less maximal binding signal (Rmax)
same,kon,[2],1500 M⁻¹ s⁻¹
CC[C@H](C)[C@H](NC(=O)CCCCCNC(=O)CCCC[C@@H]1SC[C@@H]2NC(=O)N[C@@H]21)C(=O)N[C@@H](Cc1ccc(O)cc1)C(=O)N[C@H](C(=O)N1CCC[C@H]1C(=O)N[C@@H](CCC(=O)O)C(=O)N[C@@H](C)C(=O)N[C@@H](CCC(N)=O)C(=O)N[C@H](C(=O)N[C@@H](CCCNC(=N)N)C(=O)N[C@@H](CC(C)C)C(=O)O)[C@@H](C)O)[C@@H](C)CC ({Biotin-Ahx}-IYIPEAQTRL-OH),kon,[1],1490 M⁻¹ s⁻¹
same,KD of R59Q variant relative to wildtype (fold less than the wildtype),[2],at least 2 fold
same,"maximal binding signal (Rmax), R59Q in comparison to wildtype",[2],less maximal binding signal (Rmax)
same,kon,[2],15400 M⁻¹ s⁻¹
TSTTL-COOH [CXCR2 C-tail pentamer used in docking and MD],binding to RGS12 PDZ domain fusions (in words),[3],specific binding was observed
"R59Q-variant human RGS12 PDZ domain GST-fusion protein (domain or fragment, UniProt O14924 18-101, looked up, human RGS12 PDZ domain, aa 18-101 of UniProt O14924, with the bipolar disorder-associated missense variation R59Q; R59Q is a variant found in families with bipolar disorder (Forstner et al.); also called R59Q-variant PDZ domain fusion protein; not shown: GST, N-terminal, kept) PRVRSVEVARGRAGYGFTLSGQAPCVLSCVMRGSPADFVGLQAGDQILAVNEINVKKASHEDVVKLIGKCSGVLHMVIAEGVGR",fold change of KD against the wild type,[4],≥ 2 fold
same,fold change of KD against the wild type,[5],≥ 2 fold
same,fold change of KD against the wild type,[6],≥ 2 fold
